Here are results for two compounds from patent publication US9481885B2, “Methods and compositions related to miR-21 and miR-29a, exosome inhibition, and cancer metastasis” (Ohio State Innovation Foundation, priority 2011, dated 2016).

For one test, the system named is TLR8-HEK-293 cells. Description: NF-κB activation in TLR8-HEK-293 cells treated with LLC exosomes, with or without Bafilomycin A. Particulars: TLR8-HEK-293 cells pretreated with 10 nM Bafilomycin A; P<0.0005. It counts as cell-based, human. As to the method:
Next, LLC cells were injected into the tails of WT and TLR7^−/− mice and the overall survival of the animals and number of lung multiplicities after necropsy was assessed. […] For the experiment with Bafilomycin A, TLR8-HEK-293 cells were seeded in a 24-well plate at a density of 200,000 cells per well. The next day cells were preincubated with 10 nM Bafilomycin A (Sigma) for 30 min and then were treated for 24 h with exosomes purified from LLC cells in the presence or absence of 10 nM Bafilomycin A. Cell supernatants were collected and harvested, and the QUANTI-Blue Assay was performed. NF-κB activity was assessed by QUANTI-Blue Assay (Invivogen). HEK-Blue-TLR7 and TLR8 293 cells allow verification of the activation of NF-κB after the stimulation of the respective TLRs. Both these cell lines were obtained by co-transfection of the TLR7 and 8 genes and an optimized secreted embryonic alkaline phosphatase reporter gene (SEAP) under the control of the […] minimal promoter fused to five NF-κB and AP-1-binding sites into HEK-293 cells. […] Levels of SEAP can be easily determined with QUANTI-Blue, a detection medium that turns purple/blue in the presence of alkaline phosphatase. […] The plate was then incubated at 37° C. for 1-3 h and SEAP levels were determined by reading the plate with a spectrophotometer at 620-655 nm (SpectraMax, Molecular Devices).

Another test concerns LLC cells. The test can be described thus: Lung multiplicities in LLC-injected B6 mice treated with GW4869, with exosome rescue. The test is classed as in vivo, mouse. Particulars: WT B6 mice injected with LLC cells; GW4869 i.p. 1.25 mg/kg/d for 5 d. As to the method: Finally, to assess the role of miRNAs released from lung cancer exosomes in TLR7 activation and in the metastatic process, the expression was silenced of miR-16 or of miR-21 and -29a combined in LLC cells by Locked Nucleic Acid (LNA) anti-miRNA inhibitors. After anti-miRNA transfection, the levels of the silenced miRNAs were reduced in the exosomes derived from these cells (FIG. 7F). The transfected cells were injected into the tail vein of B6 mice, and lung multiplicities were counted. […] We further investigated which miRNAs are expressed in cancer cells and adjacent normal lung tissues in mice injected with anti-scrambled LLCs or anti-miR-21/29a LLCs. Cancer cells in lung tumors developed by mice injected with anti-scrambled LLC were positive for the anti-scrambled oligonucleotide.
The in vivo rescue experiment with LLC cells was conducted in 15 male, 7-wk-old B6 mice. Mice were injected with 1.8×10^6 LLC cells in the tail vein in 300 μL of volume (T0). After 4 d (T4), i.p. injections were started for 10 mice with GW4869 (1.25 mgkg^−1d^−1), an inhibitor of exosome secretion also able to reduce the content of miRNAs in secreted exosomes, and of five mice with DMSO (a solvent of GW4869) as a control, daily for 5 d consecutively. […] All mice were killed at T18, necropsy was performed, and lung multiplicities were counted.

With `CO/C1=C\C(C)=C\[C@@H](C)[C@@H](O)[C@@H](C)C/C(C)=C/C=C/[C@H](OC)[C@@H]([C@@H](C)[C@@H](O)[C@H](C)[C@@]2(O)C[C@@H](O)[C@H](C)[C@@H](C(C)C)O2)OC1=O` [Bafilomycin A], the “NF-κB activation by LLC-derived exosomes in the presence of Bafilomycin A” value in the test on TLR8-HEK-293 cells is reported as “significantly reduced”.

Turning to `O=C(/C=C/c1ccc(/C=C/C(=O)Nc2ccc(C3=NCCN3)cc2)cc1)Nc1ccc(C2=NCCN2)cc1` [GW4869], the “number of lung multiplicities” value in the test with LLC cells is “significantly lower”.
